Measured values reported in article PMC10096175, “An In Vitro Antimicrobial, Anticancer and Antioxidant Activity of N–[(2–Arylmethylthio)phenylsulfonyl]cinnamamide Derivatives” (Molecules, 2023).
≈ marks a conversion by molar mass, not a printed value.

Assays:
[1] = system: cancer cells (HeLa, SKOV-3, MCF-7); experiment: MTT assay, summary statements on the cancer cells; format: cell-based; details: Homo sapiens, cell line not specified
[2] = system: S. epidermidis ATCC 14990; experiment: Blood bacteriostatic activity test in sheep blood; format: cell-based, Staphylococcus epidermidis; details: 24 h, 37 °C, t0 1.70 × 10^7, control t24 5.10 × 10^8
Protocol: The manifestation of the bactericidal properties of chemical compounds is low minimum bactericidal concentration (MBC) values, which allows many groups of researchers to check the killing rate over time (time killing tests). It is an important element in determining the strength and speed of action of a compound on bacteria. Such studies are usually carried out in bacterial media, without additional factors influencing the results.
This step was carried out on two types of bacteria, S. aureus ATCC 6538 (Figure 8 and Table 2) and S. epidermidis ATCC 14 990 (Figure 9 and Table 3).
The number of bacteria at the initial time (t0) was 1.30 × 10^8 CFU/mL for S. aureus and 1.70 × 10^7 CFU/mL for S. epidermidis. Live bacterial cells were assayed after 24 h of incubation at 37 °C. […] Bacterial controls without compounds grew unhindered and after 24 h (t24) were 2.28 × 10^9 for S. aureus and 5.10 × 10^8 CFU/mL for S. epidermidis. […] It can be assumed that the tested compounds were not related to any fraction of the blood. Attention should be paid to the S. epidermidis tests and the difference between the number of bacteria at t0 and after 24 h of incubation for each compound. The number of bacteria at t0 was 1.70 × 10^7 CFU/mL and after 24 h it decreased to, e.g., 9.40 × 10^6 CFU/mL for compounds 16e and 7.80 × 10^6 CFU/mL for compound 17c. It can be assumed that the tested compounds after being added to blood samples prevented bacteria from multiplying. However, under these conditions, the phagocytic cells take up the bacteria. […] This can be explained by much greater variety of mechanisms of action of S. aureus against phagocytic cells than of S. epidermidis. This can be integrated with the bacterial cell compounds, e.g., protein A, as well as enzymes that bacteria can secrete outside the cell, e.g., coagulase and staphylokinase. Additional studies should be conducted to check how the tested compounds affect the enzymes secreted by S. aureus.
The assay was performed as previously described by with a modification. Pure sheep blood was used for the research. Two strains of bacteria S. aureus ATCC 6538 and S. epidermidis ATCC 14990 were used with an inoculum density of approximately 10^8 CFU/mL at 0 time. The final concentration of the compounds was 0.5, 1, 2, 4, and 8 µg/mL, and the final volume of the assay tube was 1 mL. Bacterial survivors were determined on MH agar plates (CFU/mL) at 24 h after exposure.

E. coli ATCC 8739 = experiment: MIC determination, reference strain (microdilution); format: cell-based; details: Escherichia coli, ATCC8739; E. coli ATCC 8739; Co-trimoxazole as sulfamethoxazole/trimethoprim; read-out: MIC
[3] = system: Staphylococcus sp. and Enterococcus sp.; experiment: MIC, summary statements on reference Gram-positive cocci; format: cell-based; details: Staphylococcus and Enterococcus species, reference Gram-positive cocci (range over strains)
Protocol: Sterile sheep blood defibrinated (GrasoBiotech). Co-trimoxazole (composition sulfamethoxazole 400 mg/trimethoprim 80 mg; WZF Polfa Poland). Ketoconazole (WZF Polfa Poland). Bacteria: Enterococcus hirae ATCC 10541 and Enterococcus faecalis ATCC 51299, Staphylococcus epidermidis ATCC 14990, Staphylococcus aureus ATCC 6538, clinical strains Staphylococcus aureus MRSA, clinical strains Staphylococcus sp. (MRCNS), clinical strain Staphylococcus epidermidis MRSE, clinical strain Enterococcus sp., Corynebacterium diphtheriae ZMF, Bacillus subtilis ATCC 6633, Escherichia coli ATCC 8739, Candida albicans ATCC 10231. Brain-heart infusion broth (BHI, Becton Dickinson) for Enterococcus hirae ATCC 10541 and Enterococcus faecalis ATCC 51299, BHI supplement with 10% bovine serum for Bacillus subtilis, Corynebacterium diphtheriae ZMF, Staphylococcus epidermidis ATCC 14990, Staphylococcus aureus ATCC 6538, clinical strains Staphylococcus aureus MRSA, clinical strains Staphylococcus sp. (CNS), clinical strain Staphylococcus epidermidis MRSE grew in Mueller-Hinton broth (MH cation-adjusted, Becton Dickinson) in an aerobic atmosphere at 37 °C for 48 h, in an aerobic atmosphere at 37 °C for 72 h. Candida albicans grew in Sabourauda broth (Sb, Becton Dickinson), in an aerobic atmosphere at 37 °C for 72 h. After determination of the bacterial viability, BHI blood agar plates, MH agar plates, and Sb agar plates were used.
The MIC determination for the reference and clinical strains was performed based on the methodology described by Kula et al.. The dry test samples were dissolved in dimethyl sulfoxide (DMSO) and diluted in water, resulting in a finale concentration of about 500 µg/mL. These solutions were diluted and added to the first well of each microtiter line. Dilution in geometric progression was done by transferring the mixture/dilution (100 μL) from the first to the twelfth well. An aliquot (100 μL) was discarded from the twelfth well. The final concentration of the samples used in the antimicrobial activity assay ranged from 125 to 0.006 µg/mL. Co-trimoxazole (for bacteria), with the composition sulfamethoxazole 400 mg/trimethoprim 80 mg was used as a reference compound in the concentration range of 20 000/4000 to 1/0.2 µg/mL. Ketoconazole (for fungi) was used as a reference compound in the concentration range of 125 to 0.006 µg/mL. Tests were incubated in adequate conditions described by Kula et al.. Diluent concentration had no effect on the activity of the tested compounds. All experiments were carried out three times.

[4] = system: 24 h biofilm already formed by MRSA strains; experiment: Effect on 24 h biofilm already formed, MRSA; format: cell-based, Staphylococcus aureus; details: MRSA12677
in vitro = details: sheep, defibrinated sheep blood diluted 1:9 v/v with PBS, pH 7
[5] = system: biofilm formation by MRSA clinical strains; experiment: Inhibition of biofilm formation (crystal violet), MRSA; format: cell-based, Staphylococcus aureus; details: 2 × MIC

SMILES | IC50 ([1]; MTT) | IC50 ([1]; µg/mL bound converted) | Number of viable cells of Staphylococcus epidermidis ([2]; 1 µg/mL) | Number of viable cells of Staphylococcus epidermidis ([2]; 2 µg/mL) | Number of viable cells of Staphylococcus epidermidis ([2]; 4 µg/mL) | Number of viable cells of Staphylococcus epidermidis ([2]; 8 µg/mL) | MIC (E. coli ATCC 8739) | MIC [3] | Inhibition of biofilm already formed, in relation to the control ([4]; 2 × MIC and 4 × MIC) | hemolysis at 24 h, 31.25 µg/mL (in vitro) | Inhibition of biofilm formation compared with the control ([5]; MRSA13318) | Inhibition of biofilm formation compared with the control ([5]; MRSA21804) | Inhibition of biofilm already formed, in relation to the control ([4]; 2 × MIC)
Cc1cc(S(=O)(=O)NC(=O)/C=C/c2ccc(Cl)cc2)c(SCc2cccc3ccccc23)cc1Cl [Compound 16d, (E)–N–{4–Chloro–5–methyl–2–[(naphthalen–1–yl)methylthio]phenylsulfonyl}–3–(4–chlorophenyl)acrylamide] | < 10 µg/mL | ≤ 20 µM | 4.00 × 10^6 CFU/mL | 3.00 × 10^6 CFU/mL | 2.00 × 10^6 CFU/mL | 2.50 × 10^6 CFU/mL | > 125 µg/mL | 1 to 2 µg/mL (≈ 1.84 to 3.69 µM) | – | – | – | – | –
COc1ccc(/C=C/C(=O)NS(=O)(=O)c2cc(C)c(Cl)cc2SCc2cccc3ccccc23)cc1F [Compound 16e, (E)–N–{4–Chloro–5–methyl–2–[(naphthalen–1–yl)methylthio]phenylsulfonyl}–3–(3–fluoro–4–methoxyphenyl)acrylamide] | – | – | 9.40 × 10^6 CFU/mL | 4.00 × 10^6 CFU/mL | 3.20 × 10^6 CFU/mL | 3.00 × 10^6 CFU/mL | > 125 µg/mL | – | about 53% | 12 to 20% | – | – | –
Cc1cc(S(=O)(=O)NC(=O)/C=C/c2ccc(Cl)cc2)c(SCc2cc3c(cc2Cl)OCO3)cc1Cl [Compound 17c, (E)–N–{4–Chloro–2–[(6–chlorobenzo[d][1,3]dioxol–5–yl)methylthio]–5–methylphenylsulfonyl}–3–(4–chlorophenyl)acrylamide] | – | – | 7.80 × 10^6 CFU/mL | 4.25 × 10^6 CFU/mL | 1.40 × 10^7 CFU/mL | 5.10 × 10^6 CFU/mL | > 125 µg/mL | 1 to 2 µg/mL (≈ 1.75 to 3.5 µM) | – | 12 to 20% | 98% | 61% | about 40%
